Measured values published in patent publication EP1039902B1, “INHIBITORS OF GAP JUNCTION COMMUNICATION” (THE SCRIPPS RESEARCH INSTITUTE, priority 1997, dated 1999).

Test system: rat glial cell gap junction
Assay: Gap junction dye coupling assay (Lucifer yellow dye transfer; microinjection or scrape loading)
Format: cell-based
Conditions: for potency of gap junction inhibition relative to oleamide: comparison in words
Description: Rat glial cells (Suter et al., 1987) obtained from Dr. Trosko's laboratory were cultured in standard plastic tissue cultureware in Richter's Improved Minimal Essential Medium (Irvine Scientific, Santa Ana, CA), supplemented with 10% fetal calf serum and 50 µg/ml gentamicin sulfate, and incubated in a humidified atmosphere of 95% air/5% CO2 at 37°C. The cells were passaged by trypsinization and used at passages 4-8. BHK (baby hamster kidney) cells that were stably transfected with a β1 connexin cDNA (Kumar et al., 1995) were cultured in DMEM medium supplemented with 5% fetal calf serum and 50 µg/ml gentamicin sulfate, and incubated in a humidified atmosphere of 95% air/5% CO2 at 37° C. In order to induce β1 connexin expression in the BHK cells, 100 µM zinc acetate was added to culture medium for 8-18 hours when the cell culture was about 90% confluent.
Gap junctional communication in glial cell and BHK/β1 cell cultures was assayed by microinjection of 5% Lucifer yellow CH dye in 0.1 M LiCl solution, and quantitated by determining the number of directly adjacent, neighboring cells that received dye (dye-coupling). Micropipettes were loaded with the dye solution by backfilling. Cells were visualized using a Nikon Diaphot inverted phase contrast/ epifluorescent microscope, and impaled with dye-filled micropipettes using an Eppendorf microinjector (model 5246). Five minutes after dye-injection, the transfer of dye to directly adjacent cells was determined using epifluorescent illumination. For each treatment condition, ten cells were microinjected in each of three dishes, the total number of dye-coupled neighboring cells was calculated and compared to determine the % dye-coupling. For scrape loading measurements, Lucifer yellow CH (0.05% dye in PBS) was loaded intracellularly by cutting or scraping cells in the monolayer with a sharp knife. The dye solution was left in the dish for 90 seconds, then the solution was discarded, and the dish subsequently washed with PBS. The cells were examined for dye transfer with an inverted epifluorescence microscope, and the degree of communication was assessed by determining the extent of Lucifer yellow transfer into contiguous cells.

[1] = result in words, concentration not stated at the place

| SMILES | inhibition of gap junction-mediated dye transfer [1] | also measured |
| --- | --- | --- |
| COCCCCCCCC/C=C\CCCCCCCC(N)=O [CH2OCH3] | did not effect the gap junction inhibition | – |
| CCCCCCCCC/C=C\CCCCCCC(N)=O [cis-8-octadecenamide] | – | inhibition of gap junction-mediated dye transfer (50 µM): significant inhibitors; potency of gap junction inhibition relative to oleamide: less potent than oleamide at lower doses |
| CCCCCCCC/C=C\CCCCCCCC(OC)OC [oleyl aldehyde dimethyl acetal, Oleyl aldehyde dimethyl acetal] | inactive | – |
| CCCCCCCC/C=C\CCCCCCCC(=O)NCCCO [oleyl propanolamide] | comparable properties | – |
| CCCCCCCC/C=C\CCCCCCC(O)C(N)=O (stereo not drawn) [α-hydroxy oleamide, 2-hydroxy-9Z-octadecenamide] | effective inhibitors | – |
| CCCCCCCC/C=C\CCCCCCCC(=O)N(C)CC(=O)OCC [N-oleoyl sarcosine ethyl ester] | effective inhibitors | – |
| NC(=O)CCCCCCC/C=C\CCCCCCCC(=O)O [carboxylic acid] | – | inhibition of gap junction-mediated dye transfer (50 µM): no gap junction inhibition |
| CCCC/C=C\CCCCCCCC(N)=O [14:1^9, Myristoleamide] | loss of activity | – |
| CCCCC/C=C\C/C=C\CCCCCCCC(N)=O [linoleamide, Linoleamide] | – | potency of gap junction inhibition relative to oleamide: lower than oleamide |
| CCCCCCCCCCCCCCCCCC(N)=O [18:0, stearamide] | no observable inhibition | inhibition of gap junction-mediated dye transfer (result in words, concentration not given, listed as octadecanamide): ineffective |
| CCCCCCCC/C=C\CCCCCCCCOC(C)=O [oleyl acetate, Oleyl acetate] | progressively reduced effectiveness | – |
| CCCCCCCC/C=C\CCCCCCCC(=O)NCC(=O)OCC [N-oleoyl glycine ethyl ester] | effective, albeit slightly less potent, inhibitor | – |
| CCCCCCCC/C=C\CCCCCCC(C)C(N)=O (stereo not drawn) [α-methyl oleamide] | potent inhibitors | – |
| CCCCCCCC/C=C\CCCCCCCC(=O)CBr [BrCH2, 1-Bromo-10Z-nonadecen-2-one] | substantially less effective | – |
| CCCCCCCC/C=C\CCCCCCCC(=O)NCC(N)=O [N-oleoyl glycinamide] | ineffective | – |
| CCCCCCCC/C=C\CCCCCCC(Cl)C(N)=O (stereo not drawn) [α-chlorooleamide] | effective inhibitors | – |
| CCCCCC/C=C\CCCCCCCCCC(N)=O [cis-11-octadecenamide] | – | inhibition of gap junction-mediated dye transfer (50 µM): only slightly affected junctional coupling; inhibition of gap junction-mediated dye transfer (100 µM): completely blocked dye transfer |
| CCCCCCCC/C=C\CCCCCCC(C)(C)C(N)=O [α,α-dimethyl oleamide] | potent inhibitors | – |
| CCCCCCCC/C=C\CCCCCCCC(=O)N(C)CC(=O)O [N-oleoyl sarcosine] | effective inhibitors | – |
| CCCCCCCC/C=C\CCCCCCCC(=O)OC[C@H](CO)OC(C)=O [(2S)-1-oleoyl-2-acetylglycerol, reference compound] | not inhibitors | – |
| CCCCCCCC/C=C\CCCCCCCC(=O)NCC(=O)O [N-oleoyl glycine] | ineffective | – |
| CCCCCCCCC#CCCCCCCCC(N)=O [compound 2, 9-octadecynamide] | potent inhibitor | potency of gap junction inhibition relative to oleamide: only slightly less active than oleamide |
| NC(=O)CCCCCCC/C=C\CCCCCCCCO [terminal alcohol, 18-hydroxyoleamide] | – | inhibition of gap junction-mediated dye transfer (50 µM): no gap junction inhibition |
| CCCCCCCC/C=C\CCCCCCCC(=O)OCC [ethyl oleate] | progressively reduced effectiveness | – |
| CCCCCCCC/C=C\CCCCCCCC(=O)OC [methyl oleate] | progressively reduced effectiveness | – |
| CC/C=C\C/C=C\C/C=C\CCCCCCCC(N)=O [α-linolenamide] | – | inhibition of gap junction-mediated dye transfer (50 µM): ineffective |
